Reference: patent US20250161419A1, “SERPIN PEPTIDES AND METHODS OF USING THE SAME” (SERPIN PHARMA, LLC, priority 2022, published 2025)

How the values were obtained:
[1] = tested on: NFκB; test: NFκB reporter assay stimulated with LPS (THP1-XBlue-MD2-GD14 reporter cells, SEAP read-out); type: cell-based; details: peptide 50 μg/ml before LPS 5 ng/ml, overnight
Experimental: The reporter cells (THP1-XBlue-MD2-GD14 cells) were treated with each peptide (50 μg/ml) before being insulted with LIPS (5 ng/ml) and incubated overnight. The NFκB inducible Secreted Embryonic Alkaline Phosphatase (SEAP) was measured in the supernatant and read for absorbance.

[2] = tested on: IL-4; test: MC903 AD model, IL-4 in ear lysate by ELISA; type: in vivo, mouse; details: topical, vs MC903
Experimental: Mice were treated with SP16 in 70% EtOH (MC903+SP16) or drug vehicle (MC903). Normal control (NC) mice were treated with EtOH only. Ears were measured for PAR2 protein expression through western blot analysis (quantitative analysis after normalization to beta-actin shown) (n=3-5). TSLP was measured in both the ears and serum by ELISA (N=3-5). Scratching was assessed over a 3 minute period after a 5-minute acclimatization period and the number of scratches are shown (n=3). IL-4 was measured in ear lysate via ELISA (N=3-5).

[3] = tested on: TSLP; test: Poly I:C-induced TSLP production by SPINK7 knockout EPC2 cells (ELISA); type: cell-based, human; details: Poly I:C 5 μg/ml, 8 hours
Experimental: FIG. 12A: Poly I:C-induced TSLP production by SPINK7 knockout EPC2 cells (Human esophageal epithelial cells). SPINK7 KO cells and control cells were plated in high calcium and high density, for 48 hours before being treated with SP16 or 7G and Poly I:C (5 μg/ml, or untreated) for 8 hours. TSLP production in the supernatant was measured by ELISA. FIG. 12B: primary esophageal epithelial cells (EPC2) were treated with SP16 and then stimulated with IL-13, a TH2 response mediated cytokine, to induce CCL26.
SP16 reduces several key cytokines involved in allergic responses. Upon knockout of SPINK7, esophageal epithelial cells release exacerbated levels of TSLP. TSLP is a key mediator of immune cell responses upon activation to an insult such as allergens.

Sequence: VKFNKPFVFLMIEQNTK (SP16 peptide core sequence including the LRP1 binding site; listed as Homo sapiens)
- NFκB activity (NFκB inducible SEAP in supernatant) [1]: capable of reducing NFκB activity
- IL-4 release in the skin tissue (ear lysate) [2]: significantly reduced
- Poly I:C mediated TSLP release [3]: effective in significantly reducing Poly 1:C mediated TSLP and CCL26 release
